Results published in patent publication US10995359B2, “Method for determining drug-sensitive human cell lines by analysis method in which measurement of activity of two types of protein kinase is used” (NITTO BOSEKI CO., LTD., priority 2015, dated 2021).

Tests used:
Experiment in all cases: Drug sensitivity assay (cell growth test), sulforhodamine B
Assay type in all cases: cell-based
HCC1143 (BL1) cells = settings: Homo sapiens, 72 hours, read-out: inhibition rate (%) by wortmannin, classification by grid analysis
Protocol: (§1) Cultured cells were treated with a MEK inhibitor and a PI3K inhibitor in various concentrations, and cell lines sensitive to MEK and PI3K were classified by calculating a cell growth inhibition rate. The culture method and analysis method are as follows.
(§2) Thirteen types of cells used in the present study, HCC38 (BL1), MDA-MB-231 (MSL), DU4475 (IM), HCC1187 (IM), HCC1143 (BL1), HCC1395 (LAR), HCC1937 (BL1), MDA-MB-453 (LAR), HCC70 (BL2), HS578T (MSL), MDA-MB-157 (MSL) and MDA-MB-468 (BL1), were obtained from American type culture collection (ATCC), and SUM185PE (LAR) was obtained from ASTERAND BIOSCIENCE. All the cells belong to triple negative breast cancer (TNBC), and it is known which of six types (BL1, BL2, M, MSL, IM and LAR) these belong to by an existing classification method.
(§3) All the cells were cultured in a medium designated from a source of supply, and 2 mM L-glutamine and 10% fetal bovine serum (FBS) were supplemented.
(§4) Each type of cells was seeded in a 96 well titer plate at 1×10^4 cells/well, and trametinib, an MEK inhibitor (Medchem Express; 0.08, 0.16, 0.31, 0.63, 1.25, 2.5, 5, 10 and 20 μM), and wortmannin, a PI3K inhibitor (Wako Pure Chemical Industries, Ltd.; 0.08, 0.16, 0.31, 0.63, 1.25, 2.5, 5, 10 and 20 μM) were dissolved in Dimethyl Sulfoxide [DMSO] (Wako Pure Chemical Industries, Ltd.) in various concentrations and treated. In addition, the effect on cell growth was examined at 72 hours after the inhibitor by sulforhodamine B assay (manufactured by SIGMA-ALDRICH), and 50 μL of sulforhodamine B solution was added to each well and cells were left at room temperature for an hour for staining. The staining degree of metabolically survival cells was examined by monitoring absorbance at a wavelength of 565 nm using a microtiter plate. The absorbance of cells which were not treated with trametinib and wortmannin (treated with DMSO) was used as a control and defined as 100% to calculate a cell growth inhibition rate.
(§5) The cell lines were classified into 4 types, cell lines sensitive to wortmannin (hereinafter, PA), cell lines sensitive to trametinib (hereinafter, MA), cell lines resistant to wortmannin and trametinib (hereinafter, R), and others (hereinafter, S). In the classification, first the inhibition rate of each drug was calculated in a concentration of 1 μM, and the inhibition rate (%) by trametinib and the inhibition rate (%) by wortmannin were plotted on the X axis and Y axis respectively on a graph.
(§6) The cell lines were classified into 4 types, cell lines sensitive to wortmannin (hereinafter, PA), cell lines sensitive to trametinib (hereinafter, MA), cell lines resistant to wortmannin and trametinib (hereinafter, R), and others (hereinafter, S). In the classification, first the inhibition rate of each drug was calculated in a concentration of 100 nM, and the inhibition rate (%) by trametinib and the inhibition rate (%) by wortmannin were plotted on the X axis and Y axis respectively on a graph.
as §5, with “10” for “1”, “graph. Using a 50% growth inhibition rate as an index of the inhibitive effect of a drug, cells were classified into 4 types by grid analysis.” for “graph.”

HCC1187 (IM) cells = settings: Homo sapiens, 72 hours, read-out: inhibition rate (%) by wortmannin, classification by grid analysis
Protocol: as §1, §2, §3, §4, §5, §6
as §5, with “10” for “1”, “graph. Using a 50% growth inhibition rate as an index of the inhibitive effect of a drug, cells were classified into 4 types by grid analysis.” for “graph.”

HCC1395 (LAR) cells = settings: Homo sapiens, 72 hours, read-out: inhibition rate (%) by wortmannin, classification by grid analysis
Protocol: as §1, §2, §3, §4, §5, §6
as §5, with “10” for “1”, “graph. Using a 50% growth inhibition rate as an index of the inhibitive effect of a drug, cells were classified into 4 types by grid analysis.” for “graph.”

HCC1937 (BL1) cells = settings: Homo sapiens, 72 hours, read-out: inhibition rate (%) by wortmannin, classification by grid analysis
Protocol: as §1, §2, §3, §4, §5, §6
as §5, with “10” for “1”, “graph. Using a 50% growth inhibition rate as an index of the inhibitive effect of a drug, cells were classified into 4 types by grid analysis.” for “graph.”

HCC70 (BL2) cells = settings: Homo sapiens, 72 hours, read-out: inhibition rate (%) by wortmannin, classification by grid analysis
Protocol: as §1, §2, §3, §4, §5, §6
as §5, with “10” for “1”, “graph. Using a 50% growth inhibition rate as an index of the inhibitive effect of a drug, cells were classified into 4 types by grid analysis.” for “graph.”

HS578T (MSL) cells = settings: Homo sapiens, Hs-578T, 72 hours, read-out: inhibition rate (%) by wortmannin, classification by grid analysis
Protocol: as §1, §2, §3, §4, §5, §6
as §5, with “10” for “1”, “graph. Using a 50% growth inhibition rate as an index of the inhibitive effect of a drug, cells were classified into 4 types by grid analysis.” for “graph.”

MDA-MB-157 (MSL) cells = settings: Homo sapiens, 72 hours, read-out: inhibition rate (%) by wortmannin, classification by grid analysis
Protocol: as §1, §2, §3, §4, §5, §6
as §5, with “10” for “1”, “graph. Using a 50% growth inhibition rate as an index of the inhibitive effect of a drug, cells were classified into 4 types by grid analysis.” for “graph.”

MDA-MB-231 (MSL) cells = settings: Homo sapiens, 72 hours, read-out: inhibition rate (%) by wortmannin, classification by grid analysis
Protocol: as §1, §2, §3, §4, §5, §6
as §5, with “10” for “1”, “graph. Using a 50% growth inhibition rate as an index of the inhibitive effect of a drug, cells were classified into 4 types by grid analysis.” for “graph.”

MDA-MB-468 (BL1) cells = settings: Homo sapiens, 72 hours, read-out: inhibition rate (%) by wortmannin, classification by grid analysis
Protocol: as §1, §2, §3, §4, §5, §6
as §5, with “10” for “1”, “graph. Using a 50% growth inhibition rate as an index of the inhibitive effect of a drug, cells were classified into 4 types by grid analysis.” for “graph.”

SUM185PE (LAR) cells = settings: Homo sapiens, 72 hours, read-out: inhibition rate (%) by wortmannin, classification by grid analysis
Protocol: as §1, §2, §3, §4, §5, §6
as §5, with “10” for “1”, “graph. Using a 50% growth inhibition rate as an index of the inhibitive effect of a drug, cells were classified into 4 types by grid analysis.” for “graph.”

[1] = 100 nM, index 12.5% growth inhibition rate
[2] = 1 μM, index 25% growth inhibition rate
[3] = 10 μM, index 50% growth inhibition rate

COC[C@H]1OC(=O)c2coc3c2[C@@]1(C)C1=C(C3=O)[C@@H]2CCC(=O)[C@@]2(C)C[C@H]1OC(C)=O [wortmannin, Wortmannin] gave an inhibition at 0.1 µM (HCC1143 (BL1) cells; HCC1143, 100 nM, index 12.5% growth inhibition rate) of less than 12.5%, an inhibition at 1 µM (HCC1143 (BL1) cells; HCC1143, 1 μM, index 25% growth inhibition rate) of less than 25% and an inhibition at 10 µM (HCC1143 (BL1) cells; HCC1143, 10 μM, index 50% growth inhibition rate) of less than 50%. It also gave an inhibition at 0.1 µM (HCC1187 (IM) cells; HCC1187, 100 nM, index 12.5% growth inhibition rate) of less than 12.5%, an inhibition at 1 µM (HCC1187 (IM) cells; HCC1187, 1 μM, index 25% growth inhibition rate) of less than 25% and an inhibition at 10 µM (HCC1187 (IM) cells; HCC1187, 10 μM, index 50% growth inhibition rate) of less than 50%. The inhibition at 0.1 µM (HCC1395 (LAR) cells; HCC1395, 100 nM, index 12.5% growth inhibition rate) was less than 12.5%, the inhibition at 1 µM (HCC1395 (LAR) cells; HCC1395, 1 μM, index 25% growth inhibition rate) was less than 25% and the inhibition at 10 µM (HCC1395 (LAR) cells; HCC1395, 10 μM, index 50% growth inhibition rate) was less than 50%. It also gave an inhibition at 0.1 µM (HCC1937 (BL1) cells; HCC1937, 100 nM, index 12.5% growth inhibition rate) of less than 12.5%, an inhibition at 1 µM (HCC1937 (BL1) cells; HCC1937, 1 μM, index 25% growth inhibition rate) of less than 25% and an inhibition at 10 µM (HCC1937 (BL1) cells; HCC1937, 10 μM, index 50% growth inhibition rate) of less than 50%. It also gave an inhibition at 0.1 µM (HCC70 (BL2) cells; HCC70, 100 nM, index 12.5% growth inhibition rate) greater than 12.5%, an inhibition at 1 µM (HCC70 (BL2) cells; HCC70, 1 μM, index 25% growth inhibition rate) greater than 25% and an inhibition at 10 µM (HCC70 (BL2) cells; HCC70, 10 μM, index 50% growth inhibition rate) greater than 50%. For the same compound, the inhibition at 0.1 µM (HS578T (MSL) cells; [1]) was less than 12.5%, the inhibition at 1 µM (HS578T (MSL) cells; [2]) was less than 25% and the inhibition at 10 µM (HS578T (MSL) cells; [3]) was less than 50%. It also gave an inhibition at 0.1 µM (MDA-MB-157 (MSL) cells; MDA-MB-157, 100 nM, index 12.5% growth inhibition rate) of less than 12.5%, an inhibition at 1 µM (MDA-MB-157 (MSL) cells; MDA-MB-157, 1 μM, index 25% growth inhibition rate) of less than 25% and an inhibition at 10 µM (MDA-MB-157 (MSL) cells; MDA-MB-157, 10 μM, index 50% growth inhibition rate) of less than 50%. It also gave an inhibition at 0.1 µM (MDA-MB-231 (MSL) cells; MDA-MB-231, 100 nM, index 12.5% growth inhibition rate) of less than 12.5%, an inhibition at 1 µM (MDA-MB-231 (MSL) cells; MDA-MB-231, 1 μM, index 25% growth inhibition rate) of less than 25% and an inhibition at 10 µM (MDA-MB-231 (MSL) cells; MDA-MB-231, 10 μM, index 50% growth inhibition rate) of less than 50%. The inhibition at 0.1 µM (MDA-MB-468 (BL1) cells; MDA-MB-468, 100 nM, index 12.5% growth inhibition rate) was greater than 12.5%, the inhibition at 1 µM (MDA-MB-468 (BL1) cells; MDA-MB-468, 1 μM, index 25% growth inhibition rate) was greater than 25% and the inhibition at 10 µM (MDA-MB-468 (BL1) cells; MDA-MB-468, 10 μM, index 50% growth inhibition rate) was greater than 50%. For the same compound, the inhibition at 0.1 µM (SUM185PE (LAR) cells; [1]) was greater than 12.5%, the inhibition at 1 µM (SUM185PE (LAR) cells; [2]) was greater than 25% and the inhibition at 10 µM (SUM185PE (LAR) cells; [3]) was greater than 50%.
